In article PMC12751012, “Nanoscale Direct-to-Biology Optimization and Structural Insights into Selective S. aureus TrmD Inhibitors” (Journal of Medicinal Chemistry, 2025):

Target: T1, S. aureus TrmD (Staphylococcus aureus, UniProt Q2FZ43)
T1 construct: made in house; host or cells: E. coli BL21
T1 sequence (Q2FZ43 1-245): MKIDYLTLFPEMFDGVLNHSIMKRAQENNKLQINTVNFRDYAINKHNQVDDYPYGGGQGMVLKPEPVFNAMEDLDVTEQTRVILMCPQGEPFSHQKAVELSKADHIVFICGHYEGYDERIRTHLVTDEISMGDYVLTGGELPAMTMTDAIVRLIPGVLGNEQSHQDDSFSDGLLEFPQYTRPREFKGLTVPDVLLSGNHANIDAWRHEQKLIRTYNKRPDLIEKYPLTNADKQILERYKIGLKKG
Assay: nanoSAR direct-to-biology FP displacement screening of crude triazoles
Type: binding
Settings: crude triazole at 1 μM, assuming full conversion, 500 nM TrmD, 10 nM tracer 4; for inhibition at 1 µM: read-out: % displaced tracer
How it was run: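 Crude CuAAC triazoles from alkyne 7 and 320 diverse azides were screened by FP displacement of 10 nM tracer 4 from 500 nM S. aureus TrmD. Buffer was 40 mM Tris HCl, 100 mM NaCl, 10 mM MgCl2, 5% glycerol, pH 7.5.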

Row | Compound | inhibition at 1 µM | % displaced tracer
1 | Cc1cc(F)cc(-n2cc(-c3c[nH]c4nc[nH]c(=O)c34)nn2)c1 [Compound 03C04, Fc1cc(N2N=NC(C=3C=4C(=O)NC=NC4NC3)=C2)cc(c1)C] | 17% | –
2 | O=c1[nH]cnc2[nH]cc(-c3cn(-c4ccc5c(c4)OCO5)nn3)c12 [Compound 03C05, O=C1NC=NC=2NC=C(C=3N=NN(c4cc5OCOc5cc4)C3)C12] | 59% | –
3 | O=c1[nH]cnc2[nH]cc(-c3cn(-c4ccc5c(c4)NCC5)nn3)c12 [Compound 03C06, O=C1NC=NC=2NC=C(C=3N=NN(c4cc5NCCc5cc4)C3)C12] | 25% | –
4 | CC(C)(C)OCCCn1cc(-c2c[nH]c3nc[nH]c(=O)c23)nn1 [Compound 03C07, O=C1NC=NC=2NC=C(C=3N=NN(C3)CCCOC(C)(C)C)C12] | 42% | –
5 | COC(=O)c1coc(Cn2cc(-c3c[nH]c4nc[nH]c(=O)c34)nn2)n1 [Compound 03C08, O=C(OC)C=1N=C(OC1)CN2N=NC(C=3C=4C(=O)NC=NC4NC3)=C2] | 40% | –
6 | O=c1[nH]cnc2[nH]cc(-c3cn(C[C@@H]4CCCN4)nn3)c12 [Compound 03C09, O=C1NC=NC=2NC=C(C=3N=NN(C3)C[C@H]4[NH2+]CCC4)C12] | 58% | –
7 | C[C@@H](Cn1cc(-c2c[nH]c3nc[nH]c(=O)c23)nn1)c1ccccn1 [Compound 03C10, O=C1NC=NC=2NC=C(C=3N=NN(C3)C[C@@H](c4ncccc4)C)C12] | 63% | –
8 | COCCn1cc(-c2c[nH]c3nc[nH]c(=O)c23)nn1 [Compound 03C11, O=C1NC=NC=2NC=C(C=3N=NN(C3)CCOC)C12] | 29% | –
9 | O=c1[nH]cnc2[nH]cc(-c3cn(C[C@H]4CCNC4)nn3)c12 [Compound 03C12, O=C1NC=NC=2NC=C(C=3N=NN(C3)C[C@@H]4C[NH2+]CC4)C12] | 74% | –
10 | Cc1ccc([C@@H](O)Cn2cc(-c3c[nH]c4nc[nH]c(=O)c34)nn2)cc1 [Compound 03D01, O=C1NC=NC=2NC=C(C=3N=NN(C3)C[C@H](O)c4ccc(cc4)C)C12] | 65% | –
11 | C[C@@H]1C[C@H](n2cc(-c3c[nH]c4nc[nH]c(=O)c34)nn2)c2ccsc2S1(=O)=O [Compound 03D02, S1(=O)(=O)C=2SC=CC2[C@@H](N3N=NC(C=4C=5C(=O)NC=NC5NC4)=C3)C[C@H]1C] | 27% | –
12 | O=c1[nH]cnc2[nH]cc(-c3cn(C[C@H](O)Cc4ccccc4)nn3)c12 [Compound 03D03, O=C1NC=NC=2NC=C(C=3N=NN(C3)C[C@H](O)Cc4ccccc4)C12] | 39% | –
13 | CCOC(=O)C12CC(Cn3cc(-c4c[nH]c5nc[nH]c(=O)c45)nn3)(C1)OC21CCOCC1 [Compound 03D04, O=C(OCC)C12C3(OC(CN4N=NC(C=5C=6C(=O)NC=NC6NC5)=C4)(C1)C2)CCOCC3] | 51% | –
14 | Nc1ccc(-n2cc(-c3c[nH]c4nc[nH]c(=O)c34)nn2)cc1 [Compound 03D05, O=C1NC=NC=2NC=C(C=3N=NN(c4ccc(N)cc4)C3)C12] | 2.34% | –
15 | COCC(COC)n1cc(-c2c[nH]c3nc[nH]c(=O)c23)nn1 [Compound 03D06, O=C1NC=NC=2NC=C(C=3N=NN(C3)C(COC)COC)C12] | 24% | –
16 | O=c1[nH]cnc2[nH]cc(-c3cn([C@H]4CCNC4)nn3)c12 [Compound 03D07, O=C1NC=NC=2NC=C(C=3N=NN(C3)[C@@H]4C[NH2+]CC4)C12] | 27% | –
17 | COC(=O)c1ccc(-n2cc(-c3c[nH]c4nc[nH]c(=O)c34)nn2)cc1 [Compound 03D08, O=C(OC)c1ccc(N2N=NC(C=3C=4C(=O)NC=NC4NC3)=C2)cc1] | 11% | –
18 | CCO[C@@H]1CCCC[C@H]1n1cc(-c2c[nH]c3nc[nH]c(=O)c23)nn1 [Compound 03D09, O=C1NC=NC=2NC=C(C=3N=NN(C3)[C@H]4[C@H](OCC)CCCC4)C12] | 25% | –
19 | O=c1[nH]cnc2[nH]cc(-c3cn(C[C@H]4COCCO4)nn3)c12 [Compound 03D10, O=C1NC=NC2=C1C(C3=CN(C[C@H]4COCCO4)N=N3)=CN2] | 57% | –
20 | O=c1[nH]cnc2[nH]cc(-c3cn(Cc4cccc(Cl)c4)nn3)c12 [Compound 03D11, Clc1cc(ccc1)CN2N=NC(C=3C=4C(=O)NC=NC4NC3)=C2] | 75% | –
21 | O=c1[nH]cnc2[nH]cc(-c3cn(C[C@H](O)C(F)(F)F)nn3)c12 [Compound 03D12, FC(F)(F)[C@@H](O)CN1N=NC(C=2C=3C(=O)NC=NC3NC2)=C1] | 71% | –
22 | O=c1[nH]cnc2[nH]cc(-c3cn([C@@H]4CCOC4)nn3)c12 [Compound 03E01, O=C1NC=NC=2NC=C(C=3N=NN(C3)[C@H]4COCC4)C12] | 27% | –
23 | CN1CC[C@@H](n2cc(-c3c[nH]c4nc[nH]c(=O)c34)nn2)C1=O [Compound 03E02, O=C1NC=NC=2NC=C(C=3N=NN(C3)[C@H]4C(=O)N(CC4)C)C12] | 27% | –
24 | CN(C)[C@@H]1CCN(CCn2cc(-c3c[nH]c4nc[nH]c(=O)c34)nn2)C1 [Compound 03E03, O=C1NC=NC=2NC=C(C=3N=NN(C3)CC[N@@H+]4C[C@H]([NH+](C)C)CC4)C12] | 40% | –

Row | Compound | inhibition at 1 µM | % displaced tracer
25 | O=c1[nH]cnc2[nH]cc(-c3cn(Cc4ccc(F)cc4)nn3)c12 [Compound 03E04, Fc1ccc(cc1)CN2N=NC(C=3C=4C(=O)NC=NC4NC3)=C2] | 85% | –
26 | CCNCCn1cc(-c2c[nH]c3nc[nH]c(=O)c23)nn1 [Compound 03E05, O=C1NC=NC=2NC=C(C=3N=NN(C3)CC[NH2+]CC)C12] | 87% | –
27 | O=c1[nH]cnc2[nH]cc(-c3cn(C[C@@H]4C[C@@H]4C(F)(F)F)nn3)c12 [Compound 03E06, FC(F)(F)[C@@H]1[C@H](CN2N=NC(C=3C=4C(=O)NC=NC4NC3)=C2)C1] | 34% | –
28 | N#CC1(Cn2cc(-c3c[nH]c4nc[nH]c(=O)c34)nn2)CCCCC1 [Compound 03E07, O=C1NC=NC=2NC=C(C=3N=NN(C3)CC4(C#N)CCCCC4)C12] | 69% | –
29 | O=c1[nH]cnc2[nH]cc(-c3cn(-c4cc(Cl)cc(Cl)c4)nn3)c12 [Compound 03E08, Clc1cc(Cl)cc(N2N=NC(C=3C=4C(=O)NC=NC4NC3)=C2)c1] | 23% | –
30 | O=c1[nH]cnc2[nH]cc(-c3cn(CCCN4CCOCC4)nn3)c12 [Compound 03E09, O=C1NC=NC=2NC=C(C=3N=NN(C3)CCC[NH+]4CCOCC4)C12] | 66% | –
31 | NCCCn1cc(-c2c[nH]c3nc[nH]c(=O)c23)nn1 [Compound 03E10, O=C1NC=NC=2NC=C(C=3N=NN(C3)CCC[NH3+])C12] | 68% | –
32 | O=c1[nH]cnc2[nH]cc(-c3cn(CC4CCCC4)nn3)c12 [Compound 03E11, O=C1NC=NC=2NC=C(C=3N=NN(C3)CC4CCCC4)C12] | 39% | –
33 | CN(C)c1cccc(OCCCn2cc(-c3c[nH]c4nc[nH]c(=O)c34)nn2)c1 [Compound 03E12, O=C1NC=NC=2NC=C(C=3N=NN(C3)CCCOc4cc(N(C)C)ccc4)C12] | 80% | –
34 | C[C@H](N)Cn1cc(-c2c[nH]c3nc[nH]c(=O)c23)nn1 [Compound 03F01, O=C1NC=NC=2NC=C(C=3N=NN(C3)C[C@@H]([NH3+])C)C12] | – | 56%
35 | Cc1cc(Cn2cc(-c3c[nH]c4nc[nH]c(=O)c34)nn2)no1 [Compound 03F02, O=C1NC=NC=2NC=C(C=3N=NN(C3)CC4=NOC(=C4)C)C12] | 35% | –
36 | COC(=O)c1cc(-n2cc(-c3c[nH]c4nc[nH]c(=O)c34)nn2)ccn1 [Compound 03F03, O=C(OC)c1nccc(N2N=NC(C=3C=4C(=O)NC=NC4NC3)=C2)c1] | 10% | –
37 | O=c1[nH]cnc2[nH]cc(-c3cn(-c4cccc5ccncc45)nn3)c12 [Compound 03F04, O=C1NC=NC=2NC=C(C=3N=NN(c4c5c(ccnc5)ccc4)C3)C12] | 22% | –
38 | COc1nc(OC)nc(-n2cc(-c3c[nH]c4nc[nH]c(=O)c34)nn2)n1 [Compound 03F05, O=C1NC=NC=2NC=C(C=3N=NN(c4nc(OC)nc(OC)n4)C3)C12] | 33% | –
39 | COC(=O)c1cccc2nc(Cn3cc(-c4c[nH]c5nc[nH]c(=O)c45)nn3)cn12 [Compound 03F06, O=C(OC)C=1N2C(=NC(=C2)CN3N=NC(C=4C=5C(=O)NC=NC5NC4)=C3)C=CC1] | 26% | –
40 | Cc1cc(F)ccc1[C@H](C)n1cc(-c2c[nH]c3nc[nH]c(=O)c23)nn1 [Compound 03F07, Fc1cc(c(cc1)[C@@H](N2N=NC(C=3C=4C(=O)NC=NC4NC3)=C2)C)C] | 51% | –
41 | CCC1(Cn2cc(-c3c[nH]c4nc[nH]c(=O)c34)nn2)COC1 [Compound 03F08, O=C1NC=NC=2NC=C(C=3N=NN(C3)CC4(COC4)CC)C12] | 76% | –
42 | O=c1[nH]cnc2[nH]cc(-c3cn(-c4cc(F)cc(F)c4)nn3)c12 [Compound 03F09, Fc1cc(F)cc(N2N=NC(C=3C=4C(=O)NC=NC4NC3)=C2)c1] | 25% | –
43 | Cc1ccc(-n2cc(-c3c[nH]c4nc[nH]c(=O)c34)nn2)nc1 [Compound 03F10, O=C1NC=NC=2NC=C(C=3N=NN(c4ncc(cc4)C)C3)C12] | 18% | –
44 | CC(C)(C)OC(=O)N1CCC[C@H](CCn2cc(-c3c[nH]c4nc[nH]c(=O)c34)nn2)CC1 [Compound 03F11, O=C(OC(C)(C)C)N1CC[C@@H](CCN2N=NC(C=3C=4C(=O)NC=NC4NC3)=C2)CCC1] | 71% | –
45 | O=c1[nH]cnc2[nH]cc(-c3cn(C4CNC4)nn3)c12 [Compound 03F12, O=C1NC=NC=2NC=C(C=3N=NN(C3)C4C[NH2+]C4)C12] | 42% | –
46 | COc1cccc(-n2cc(-c3c[nH]c4nc[nH]c(=O)c34)nn2)c1 [Compound 03G01, O=C1NC=NC=2NC=C(C=3N=NN(c4cc(OC)ccc4)C3)C12] | 11% | –
47 | O=c1[nH]cnc2[nH]cc(-c3cn(Cc4cnns4)nn3)c12 [Compound 03G02, S1N=NC=C1CN2N=NC(C=3C=4C(=O)NC=NC4NC3)=C2] | 73% | –
